Where “and” joins values, the source holds several entries; their conditions need not be identical. Identical values can stand only once. Marks after values point to notes of the source that are not given here. Non-standard residues stand in square brackets, D forms with d. Residues, ends and D or L forms follow the SMILES beside them. *: point of attachment. Asu = N[C@@H](CCCCCC(=O)O)C(=O)O; NHOH = ON*
Assays:
HDAC1 [1] = target: T1, HDAC1 (Homo sapiens, UniProt Q13547); test: Recombinant HDAC µSPOT microarray binding assay;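 further: slides with spotted peptides incubated with six HDAC concentrations in HEPES buffer pH 7.4, spot intensities fitted by four-parameter logistic, EC50 as enzyme concentration giving half-maximal binding signal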
T1 construct: HDAC1 (full length, C-terminal His tag, C-terminal FLAG tag, BPS Bioscience, cat. #: 50051); FLAG (C); purchased BPS Bioscience 50051
Method: Experiments were performed twice, data were obtained with Array Analyze software (Active Motif), and data analysis and representation were performed with the GraphPad Prism 7 software. Outliers were curated manually and data were fitted to nonlinear regression [log(agonist) vs. response—variable slope (four parameters)]. […] Non-sigmoidal curves were denoted as not determined (N.D.) The pEC50 values were determined as the concentration of HDAC enzyme required for half-maximal binding signal.

HDACs 1‒3 and 8 = test: HDAC inhibition assays, statements across several class I isozymes; assay type: biochemical, human; details: resynthesized peptides, from Ki
HDAC4 = target: T2, HDAC4 (Homo sapiens, UniProt P56524); test: HDAC inhibition assay (fluorogenic, Ac-Leu-Gly-Lys(Tfa)-AMC); assay type: biochemical; details: 2 internal replicates
T2 construct: purchased BPS Bioscience 50004

HDAC1 [2] = target: T1, HDAC1; test: HDAC inhibition assay (fluorogenic, Ac-Leu-Gly-Lys(Ac)-AMC); assay type: biochemical; details: for HDAC1 dose-response data (relative enzyme activity), Fig. 6 + S. Fig. 10: duplicate columns
HDAC3/NCoR2 [3] = target: T3, HDAC3/NCoR2 (Homo sapiens, UniProt O15379); test: as above; assay type: biochemical; details: for HDAC3 dose-response data (relative enzyme activity), Fig. 6 + S. Fig. 10: duplicate columns
T3 construct: HDAC3/NCoR2 (full length, C-terminal His tag, NCoR2 N-terminal GST tag); purchased BPS Bioscience 50003

HDAC3/NCoR2 [4] = target: T3, HDAC3/NCoR2; test: Recombinant HDAC µSPOT microarray binding assay;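 further: peptide spots on cellulose slides incubated with rising HDAC enzyme concentrations, imaged together, four-parameter logistic fit, EC50 is enzyme concentration giving half-maximal binding signal, two experiments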
HDAC6 = target: T4, HDAC6 (Homo sapiens, UniProt Q9UBN7); test: HDAC inhibition assay (fluorogenic, Ac-Leu-Gly-Lys(Ac)-AMC); assay type: biochemical; details: HDAC6, replicates
T4 construct: HDAC6 (full length, BPS Bioscience, cat. #: 50056); purchased BPS Bioscience 50056
T4 sequence (Q9UBN7 1-1215): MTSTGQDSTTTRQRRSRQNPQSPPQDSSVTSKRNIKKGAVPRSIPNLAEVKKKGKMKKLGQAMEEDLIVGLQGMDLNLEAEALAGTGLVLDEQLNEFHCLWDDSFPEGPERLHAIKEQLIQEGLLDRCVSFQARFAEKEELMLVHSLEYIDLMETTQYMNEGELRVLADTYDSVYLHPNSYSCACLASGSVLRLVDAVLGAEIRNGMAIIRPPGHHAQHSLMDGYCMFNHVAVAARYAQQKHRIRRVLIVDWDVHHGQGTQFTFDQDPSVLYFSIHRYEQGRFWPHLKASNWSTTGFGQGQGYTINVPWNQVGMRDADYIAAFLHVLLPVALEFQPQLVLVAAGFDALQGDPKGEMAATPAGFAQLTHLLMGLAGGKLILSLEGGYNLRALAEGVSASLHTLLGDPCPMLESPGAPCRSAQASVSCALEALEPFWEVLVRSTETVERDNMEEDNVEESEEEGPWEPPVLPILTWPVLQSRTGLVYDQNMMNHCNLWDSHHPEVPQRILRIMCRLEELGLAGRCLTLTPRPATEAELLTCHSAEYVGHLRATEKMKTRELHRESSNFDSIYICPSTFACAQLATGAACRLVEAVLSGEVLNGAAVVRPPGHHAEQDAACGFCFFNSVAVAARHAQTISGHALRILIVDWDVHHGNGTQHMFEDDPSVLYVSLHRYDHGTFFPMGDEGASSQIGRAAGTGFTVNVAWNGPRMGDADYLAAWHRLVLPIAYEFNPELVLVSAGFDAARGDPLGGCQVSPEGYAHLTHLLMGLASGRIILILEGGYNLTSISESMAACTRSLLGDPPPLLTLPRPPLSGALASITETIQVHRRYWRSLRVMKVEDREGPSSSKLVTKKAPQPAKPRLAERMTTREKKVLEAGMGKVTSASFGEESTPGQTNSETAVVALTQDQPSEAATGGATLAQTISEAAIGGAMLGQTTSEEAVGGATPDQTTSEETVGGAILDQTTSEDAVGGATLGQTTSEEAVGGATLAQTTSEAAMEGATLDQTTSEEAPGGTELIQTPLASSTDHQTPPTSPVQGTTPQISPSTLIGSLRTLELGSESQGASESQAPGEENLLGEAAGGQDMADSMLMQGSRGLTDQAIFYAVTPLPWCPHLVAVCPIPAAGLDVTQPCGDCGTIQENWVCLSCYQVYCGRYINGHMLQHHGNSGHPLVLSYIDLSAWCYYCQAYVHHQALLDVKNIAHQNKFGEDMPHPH

HDAC8 = target: T5, HDAC8 (Homo sapiens, UniProt Q9BY41); test: HDAC inhibition assay (fluorogenic, Ac-Leu-Gly-Lys(Tfa)-AMC); assay type: biochemical; details: for HDAC8 dose-response data (relative enzyme activity, replicate values), Fig. 6 + S. Fig. 10: two replicate columns per inhibitor; for HDAC8 dose-response data (relative enzyme activity), Fig. 6 + S. Fig. 10: duplicate columns
T5 construct: HDAC8 (full length, C-terminal His tag, BPS Bioscience, cat. #: 50008); purchased BPS Bioscience 50008
T5 sequence (Q9BY41 1-377): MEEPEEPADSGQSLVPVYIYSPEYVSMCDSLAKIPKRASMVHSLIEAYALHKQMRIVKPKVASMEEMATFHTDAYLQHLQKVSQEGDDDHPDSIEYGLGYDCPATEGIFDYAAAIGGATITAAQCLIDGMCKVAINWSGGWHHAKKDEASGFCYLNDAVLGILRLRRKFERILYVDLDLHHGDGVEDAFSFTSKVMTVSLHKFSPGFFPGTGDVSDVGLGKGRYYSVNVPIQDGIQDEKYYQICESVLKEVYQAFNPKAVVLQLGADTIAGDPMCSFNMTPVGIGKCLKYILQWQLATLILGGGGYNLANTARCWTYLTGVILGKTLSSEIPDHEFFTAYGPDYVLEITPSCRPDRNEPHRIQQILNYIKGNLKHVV

[5] = log[inhibitor(M)] -10,5850266520292*, whole line marked with asterisks

T3 sequence (O15379 whole entry): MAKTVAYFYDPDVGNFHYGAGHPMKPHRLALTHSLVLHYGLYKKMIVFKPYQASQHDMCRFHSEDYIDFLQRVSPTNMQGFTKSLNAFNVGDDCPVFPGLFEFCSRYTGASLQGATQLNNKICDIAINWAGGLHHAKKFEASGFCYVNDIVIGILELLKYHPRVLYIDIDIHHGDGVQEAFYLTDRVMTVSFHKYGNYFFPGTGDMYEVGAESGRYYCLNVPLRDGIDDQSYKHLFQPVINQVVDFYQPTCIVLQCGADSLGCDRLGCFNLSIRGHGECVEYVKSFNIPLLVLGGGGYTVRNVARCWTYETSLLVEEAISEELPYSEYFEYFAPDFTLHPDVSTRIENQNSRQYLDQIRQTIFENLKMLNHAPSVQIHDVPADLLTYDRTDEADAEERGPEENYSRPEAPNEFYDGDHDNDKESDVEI
T3 sequence (Q9Y618 389-480 partner limits assumed): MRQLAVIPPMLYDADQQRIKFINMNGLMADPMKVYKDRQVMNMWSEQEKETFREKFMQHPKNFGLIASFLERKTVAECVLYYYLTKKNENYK
T2 sequence (P56524 627-1084): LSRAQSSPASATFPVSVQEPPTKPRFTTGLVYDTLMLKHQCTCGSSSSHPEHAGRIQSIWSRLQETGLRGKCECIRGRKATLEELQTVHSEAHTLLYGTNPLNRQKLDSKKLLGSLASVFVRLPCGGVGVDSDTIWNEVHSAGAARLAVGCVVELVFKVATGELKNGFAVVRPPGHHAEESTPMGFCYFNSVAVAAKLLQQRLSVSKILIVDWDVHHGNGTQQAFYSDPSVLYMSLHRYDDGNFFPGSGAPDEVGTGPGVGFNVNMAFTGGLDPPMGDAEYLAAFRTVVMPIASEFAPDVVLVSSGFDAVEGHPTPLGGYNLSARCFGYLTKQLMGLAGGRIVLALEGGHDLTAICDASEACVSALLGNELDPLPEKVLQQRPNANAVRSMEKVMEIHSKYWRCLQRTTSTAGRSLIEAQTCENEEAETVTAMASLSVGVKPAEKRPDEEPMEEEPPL
T1 sequence (Q13547 whole entry): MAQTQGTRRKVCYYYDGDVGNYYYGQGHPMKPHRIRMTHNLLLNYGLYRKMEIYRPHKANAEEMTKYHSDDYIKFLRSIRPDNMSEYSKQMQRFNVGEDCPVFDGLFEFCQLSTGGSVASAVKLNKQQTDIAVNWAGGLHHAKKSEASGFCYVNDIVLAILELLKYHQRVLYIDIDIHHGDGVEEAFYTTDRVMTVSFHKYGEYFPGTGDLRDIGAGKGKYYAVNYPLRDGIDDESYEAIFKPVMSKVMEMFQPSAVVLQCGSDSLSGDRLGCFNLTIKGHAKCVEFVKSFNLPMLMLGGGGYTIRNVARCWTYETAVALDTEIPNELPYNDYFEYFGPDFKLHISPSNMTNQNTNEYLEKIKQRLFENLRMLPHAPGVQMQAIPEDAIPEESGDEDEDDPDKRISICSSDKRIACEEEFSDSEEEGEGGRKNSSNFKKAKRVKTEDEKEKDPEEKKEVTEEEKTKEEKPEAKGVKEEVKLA

CC(=O)N[C@@H](CC(C)C)C(=O)NCC(=O)N[C@@H](CCCCN)C(=O)NCC(=O)NCC(=O)N[C@@H](C)C(=O)N[C@@H](CCCCCC(=O)NO)C(=O)N[C@@H](CCCNC(=N)N)C(=O)N[C@@H](Cc1c[nH]cn1)C(=O)N[C@@H](CCCNC(=N)N)C(=O)N[C@@H](CCCCN)C(=O)N[C@H](C(=O)N[C@@H](CC(C)C)C(=O)N[C@@H](CCCNC(=N)N)C(=O)N[C@@H](CC(=O)O)C(=O)N[C@@H](CC(N)=O)C(=O)N[C@@H](Cc1c[nH]c2ccccc12)C(N)=O)C(C)C [16a] (Ac-LGKGGA[Asu](NHOH)RHRKVLRDNW-NH2)
EC50 (HDAC1 [1]): 12.6 nM | selectivity against HDACs 1‒3 versus HDAC8 (HDACs 1‒3 and 8): over 100 fold | residual enzymatic activity relative to control wells (HDAC4; inhibitor 5 µM): 96.58 | remaining activity at 5 µM (HDAC4; inhibitor 5 µM, read-out: residual enzymatic activity relative to control wells): 93.6% | residual enzymatic activity relative to control wells (HDAC4; inhibitor 50 µM): 68.39 | remaining activity at 50 µM (HDAC4; inhibitor 50 µM, read-out: residual enzymatic activity relative to control wells): 67.1% | Ki (HDAC1 [2]): 15.7 ± 0.2 nM | HDAC1 dose-response data (relative enzyme activity), Fig. 6 + S. Fig. 10 (HDAC1 [2]; log[inhibitor(M)] -6.39794): 20.1917 and 18.7736 | HDAC1 dose-response data (relative enzyme activity), Fig. 6 + S. Fig. 10 (HDAC1 [2]; log[inhibitor(M)] -7.09691): 58.4856 and 48.5202 | HDAC1 dose-response data (relative enzyme activity), Fig. 6 + S. Fig. 10 (HDAC1 [2]; log[inhibitor(M)] -7.79588): 83.6845 and 79.5184 | HDAC1 dose-response data (relative enzyme activity), Fig. 6 + S. Fig. 10 (HDAC1 [2]; log[inhibitor(M)] -8.49485): 104.354 and 102.416 | HDAC1 dose-response data (relative enzyme activity), Fig. 6 + S. Fig. 10 (HDAC1 [2]; log[inhibitor(M)] -9.19382): 117.259 and 104.242 | HDAC1 dose-response data (relative enzyme activity), Fig. 6 + S. Fig. 10 (HDAC1 [2]; log[inhibitor(M)] -9.89279): 112.284 and 97.8893 | HDAC1 dose-response data (relative enzyme activity), Fig. 6 + S. Fig. 10 (HDAC1 [2]; [5]): 104,006* and 95,9789* | Ki (HDAC3/NCoR2 [3]): 2.22 ± 0.02 nM | HDAC3 dose-response data (relative enzyme activity), Fig. 6 + S. Fig. 10 (HDAC3/NCoR2 [3]; log[inhibitor(M)] -4.30103): 0.4175 and 0.3694 | HDAC3 dose-response data (relative enzyme activity), Fig. 6 + S. Fig. 10 (HDAC3/NCoR2 [3]; log[inhibitor(M)] -5): 1.3048 and 1.953 | HDAC3 dose-response data (relative enzyme activity), Fig. 6 + S. Fig. 10 (HDAC3/NCoR2 [3]; log[inhibitor(M)] -5.69897): 3.445 and 2.8496 | HDAC3 dose-response data (relative enzyme activity), Fig. 6 + S. Fig. 10 (HDAC3/NCoR2 [3]; log[inhibitor(M)] -6.39794): 11.0647 and 10.1847 | HDAC3 dose-response data (relative enzyme activity), Fig. 6 + S. Fig. 10 (HDAC3/NCoR2 [3]; log[inhibitor(M)] -7.09691): 22.9645 and 23.8522 | HDAC3 dose-response data (relative enzyme activity), Fig. 6 + S. Fig. 10 (HDAC3/NCoR2 [3]; log[inhibitor(M)] -7.79588): 45.6159 and 50.9763 | HDAC3 dose-response data (relative enzyme activity), Fig. 6 + S. Fig. 10 (HDAC3/NCoR2 [3]; log[inhibitor(M)] -8.49485): 73.3299 and 73.9314 | HDAC3 dose-response data (relative enzyme activity), Fig. 6 + S. Fig. 10 (HDAC3/NCoR2 [3]; log[inhibitor(M)] -9.19382): 93.2672 and 99.1029 | HDAC3 dose-response data (relative enzyme activity), Fig. 6 + S. Fig. 10 (HDAC3/NCoR2 [3]; log[inhibitor(M)] -9.89279): 96.9207 and 113.14 | HDAC3 dose-response data (relative enzyme activity), Fig. 6 + S. Fig. 10 (HDAC3/NCoR2 [3]; [5]): 99,4259* and 104,433* | EC50 (HDAC3/NCoR2 [4]): 3.24 nM | residual enzymatic activity relative to control wells (HDAC6; log[inhibitor(M)] -4.30103): 4.09 and 0.65 | residual enzymatic activity relative to control wells (HDAC6; log[inhibitor(M)] -5): 6.22 and 1.17 | residual enzymatic activity relative to control wells (HDAC6; log[inhibitor(M)] -5.69897): 11.26 and 3.12 | residual enzymatic activity relative to control wells (HDAC6; log[inhibitor(M)] -6.39794): 21.64 and 10.97 | residual enzymatic activity relative to control wells (HDAC6; log[inhibitor(M)] -7.09691): 46.18 and 32.55 | residual enzymatic activity relative to control wells (HDAC6; log[inhibitor(M)] -7.79588): 74.92 and 62.21 | residual enzymatic activity relative to control wells (HDAC6; log[inhibitor(M)] -8.49485): 91.41 and 82.42 | residual enzymatic activity relative to control wells (HDAC6; log[inhibitor(M)] -9.19382): 100.82 and 93.56 | residual enzymatic activity relative to control wells (HDAC6; log[inhibitor(M)] -9.89279): 98.48 and 94.75 | residual enzymatic activity relative to control wells (HDAC6; log[inhibitor(M)] -10.585): 101,7* and 98,09* | Ki (HDAC8): 3.96 ± 0.03 µM | HDAC8 dose-response data (relative enzyme activity, replicate values), Fig. 6 + S. Fig. 10 (HDAC8; Inhibitor conc [M] -8.49485 (log)): 105.989 and 103.599 | HDAC8 dose-response data (relative enzyme activity, replicate values), Fig. 6 + S. Fig. 10 (HDAC8; Inhibitor conc [M] -9.19382 (log)): 103.027 and 101.95 | HDAC8 dose-response data (relative enzyme activity, replicate values), Fig. 6 + S. Fig. 10 (HDAC8; Inhibitor conc [M] given as -7.09691 (log)): 102.108 and 99.2954 | HDAC8 dose-response data (relative enzyme activity, replicate values), Fig. 6 + S. Fig. 10 (HDAC8; Inhibitor conc [M] given as -7.79588 (log)): 104.22 and 100.942 | HDAC8 dose-response data (relative enzyme activity, replicate values), Fig. 6 + S. Fig. 10 (HDAC8; Inhibitor conc [M] given as -9.89279 (log)): 101.805 and 102.182 | HDAC8 dose-response data (relative enzyme activity, replicate values), Fig. 6 + S. Fig. 10 (HDAC8; Inhibitor conc [M] given as -10.585 (log)): 101,084* and 101,486* | HDAC8 dose-response data (relative enzyme activity), Fig. 6 + S. Fig. 10 (HDAC8; Inhibitor conc [M] -4.30103): 9.568 and 11.2045 | HDAC8 dose-response data (relative enzyme activity), Fig. 6 + S. Fig. 10 (HDAC8; Inhibitor conc [M] -5): 36.7683 and 38.5294 | HDAC8 dose-response data (relative enzyme activity), Fig. 6 + S. Fig. 10 (HDAC8; Inhibitor conc [M] -5.69897): 76.0846 and 76.9796 | HDAC8 dose-response data (relative enzyme activity), Fig. 6 + S. Fig. 10 (HDAC8; Inhibitor conc [M] -6.39794): 95.2833 and 94.1446

Source: PMC7782793, “Hydroxamic acid-modified peptide microarrays for profiling isozyme-selective interactions and inhibition of histone deacetylases” (Nature Communications, 2021)
